Data reported in patent publication US20230192661A1, “1, 4, 5, 6-TETRAHYDROPYRIMIDINE-2-AMINE DERIVATIVE” (UBE Corporation, priority 2020, published 2023).

Columns and labels:
αvβ1 = target: T1, αvβ1 (UniProt G3HZ55+P06756); assay: αvβ1 cell adhesion inhibition test (αv-transfected CHO cells on human fibronectin); assay type: cell-based; conditions: human fibronectin coating, 1 mM MnCl2, 1 hour, read-out: IC50 (rate of inhibition of cell adhesion, αvβ1)
T1 construct: expressed in transfected cells; host or cells: CHO cells deficient in α5 gene, transfected with αv gene
T1 sequence (P06756 31-889 limits assumed): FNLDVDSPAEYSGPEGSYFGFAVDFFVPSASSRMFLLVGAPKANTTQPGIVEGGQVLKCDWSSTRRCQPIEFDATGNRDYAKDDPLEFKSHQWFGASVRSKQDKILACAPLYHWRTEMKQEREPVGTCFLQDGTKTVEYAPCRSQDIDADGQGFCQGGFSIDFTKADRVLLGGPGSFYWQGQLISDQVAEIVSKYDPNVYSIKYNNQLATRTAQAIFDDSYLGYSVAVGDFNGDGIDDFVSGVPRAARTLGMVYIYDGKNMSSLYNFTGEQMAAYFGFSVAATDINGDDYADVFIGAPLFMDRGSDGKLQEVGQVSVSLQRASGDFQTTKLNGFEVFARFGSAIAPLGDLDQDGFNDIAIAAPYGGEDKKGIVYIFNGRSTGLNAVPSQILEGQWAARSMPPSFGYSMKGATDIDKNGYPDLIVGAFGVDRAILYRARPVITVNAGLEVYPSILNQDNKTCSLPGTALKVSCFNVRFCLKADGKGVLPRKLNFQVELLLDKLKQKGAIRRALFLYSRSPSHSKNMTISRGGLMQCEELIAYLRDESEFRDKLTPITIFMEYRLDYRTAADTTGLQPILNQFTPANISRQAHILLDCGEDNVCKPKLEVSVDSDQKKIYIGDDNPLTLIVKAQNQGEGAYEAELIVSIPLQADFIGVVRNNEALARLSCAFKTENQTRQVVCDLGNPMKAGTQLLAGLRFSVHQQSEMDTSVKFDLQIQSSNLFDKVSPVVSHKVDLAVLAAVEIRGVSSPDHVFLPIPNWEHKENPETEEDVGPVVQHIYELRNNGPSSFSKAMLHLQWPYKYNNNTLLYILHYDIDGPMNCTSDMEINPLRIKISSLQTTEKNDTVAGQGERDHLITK
T1 sequence (P06756 891-1048 limits assumed): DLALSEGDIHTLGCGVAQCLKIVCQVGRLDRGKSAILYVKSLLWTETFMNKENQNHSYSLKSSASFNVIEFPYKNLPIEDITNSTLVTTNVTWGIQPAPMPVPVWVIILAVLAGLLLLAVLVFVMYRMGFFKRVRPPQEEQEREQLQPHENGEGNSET
T1 sequence (G3HZ55 21-798): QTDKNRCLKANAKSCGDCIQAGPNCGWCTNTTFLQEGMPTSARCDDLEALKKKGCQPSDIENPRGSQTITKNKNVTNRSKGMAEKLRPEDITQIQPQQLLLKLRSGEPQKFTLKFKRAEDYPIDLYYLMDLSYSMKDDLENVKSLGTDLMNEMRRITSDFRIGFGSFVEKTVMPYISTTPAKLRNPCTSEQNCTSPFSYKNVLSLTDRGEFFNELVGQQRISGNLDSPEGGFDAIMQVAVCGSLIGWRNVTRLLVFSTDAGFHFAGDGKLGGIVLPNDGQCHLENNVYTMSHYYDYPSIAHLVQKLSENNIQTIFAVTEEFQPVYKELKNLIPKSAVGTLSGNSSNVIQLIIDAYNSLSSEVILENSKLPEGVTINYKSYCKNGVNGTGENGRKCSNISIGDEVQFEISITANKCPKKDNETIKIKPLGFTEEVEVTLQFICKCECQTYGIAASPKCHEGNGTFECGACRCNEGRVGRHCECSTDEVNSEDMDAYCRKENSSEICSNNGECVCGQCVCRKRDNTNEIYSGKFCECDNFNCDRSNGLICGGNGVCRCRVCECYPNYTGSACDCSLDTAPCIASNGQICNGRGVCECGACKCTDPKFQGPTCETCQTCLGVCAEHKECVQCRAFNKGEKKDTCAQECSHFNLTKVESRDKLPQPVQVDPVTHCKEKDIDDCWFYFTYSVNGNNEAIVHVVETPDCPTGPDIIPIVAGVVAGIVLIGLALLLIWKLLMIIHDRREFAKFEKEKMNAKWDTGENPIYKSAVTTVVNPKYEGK
Procedure: Test Example 1 was performed by partially modifying the method of Reed et al. (Sci Transl Med., 7 (288), 288ra79, 2015).
Human fibronectin (manufactured by Sigma-Aldrich Co. LLC, F0895) was prepared at 1.25 μg/mL with phosphate buffered saline (PBS), dispensed at 100 μL/well to a 96-well plate, and left standing overnight. The plate was washed with Hanks' balanced salt solution (HBSS), then subjected to blocking treatment with Dulbecco's modified Eagle medium (DMEM) containing 1% bovine serum-derived albumin (BSA) (FUJIFILM Wako Pure Chemical Corp., for cell culture, 017-22231), and used as a coated plate in the adhesion test.
αv-transfected cells (CHO cells deficient in α5 gene and transfected with αv gene) cultured in Ham's F-12 medium (FUJIFILM Wako Pure Chemical Corp., 087-08335) containing 10% fetal bovine serum (FBS), 1% penicillin/streptomycin/amphotericin B (manufactured by Thermo Fisher Scientific, Inc., 15240), 1 mM GlutaMAX Supplement (manufactured by Thermo Fisher Scientific, Inc., 35050), and 400 μg/mL hygromycin B (FUJIFILM Wako Pure Chemical Corp., 080-07683) were recovered and suspended in DMEM containing 1 mM MnCl2 (manufactured by Sigma-Aldrich Co. LLC, M1787) to prepare a cell suspension. A test compound dissolved in DMSO was added thereto.
The cell suspension of 1×10^6 cells/mL containing the test compound was added at 100 μL/well to the coated plate and left standing for 1 hour in a 5% CO2 incubator (37° C.). One hour later, the supernatant was removed, and the plate was washed with HBSS. The cells that adhered to each well in the plate were stained with crystal violet, and the cells were lysed, followed by absorbance measurement. Inhibition without substrate coating was defined as 100% inhibition, and inhibition when DMSO was added instead of the test compound was defined as 0% inhibition. The rate of inhibition of cell adhesion by the test compound was calculated according to the following expression.
Rate of inhibition of cell adhesion (%)=[1−{(Absorbance in the case of adding the test compound)−(Absorbance without substrate coating)}/{(Absorbance in the case of adding DMSO)−(Absorbance without substrate coating)}]×100
An IC50 value was calculated from the rate of inhibition of cell adhesion by the test compound. A: IC50<3 nM, B: 3 nM≤IC50<10 nM, C: 10 nM≤IC50<30 nM, D: 30 nM≤IC50<100 nM, or E: IC50≥100 nM.

[1] = system: TGF-β activation (phosphorylated SMAD3); assay: TGF-β activation inhibition test (inhibition of SMAD3 phosphorylation in TFK-1 cells); assay type: cell-based; conditions: 48 h, fibronectin-coated plate, cultured 2 days, read-out: IC50 (rate of inhibition of phosphorylated SMAD3)
Procedure: In Test Example 3, the inhibition of TGF-β activation by a compound was detected with the inhibition of SMAD3 phosphorylation as an index. In Test Example 3, the same reagents as in Test Example 1 were used unless otherwise specified.
Human fibronectin was prepared at 14 μg/mL with PBS and then dispensed at 50 μL/well to a 96-well plate. The plate was left standing at room temperature for 1 hour or longer, followed by the removal of the fibronectin solution. The plate was washed with PBS and used as a coated plate.
A test compound dissolved in DMSO was added to RPMI medium 1640 (manufactured by Thermo Fisher Scientific, Inc., 11875) containing 1% FBS and 1% penicillin/streptomycin/amphotericin B to prepare a medium containing the test compound having a concentration of two times the final concentration. This medium was added at 100 μL/well to the coated plate. TFK-1 cells (Cell Resource Center for Biomedical Research, Institute of Development, Aging and Cancer, Tohoku University) cultured in RPMI medium 1640 containing 10% FBS and 1% penicillin/streptomycin/amphotericin B were suspended in RPMI medium 1640 containing 1% FBS and 1% penicillin/streptomycin/amphotericin B to prepare a cell suspension of 1×10^6 cells/mL. The prepared cell suspension was further added at 100 μL/well and cultured for 2 days in a 5% CO2 incubator (37° C.).
Phosphorylated SMAD3 in the cells thus cultured for 2 days was measured using Phospho-SMAD3 (Ser423/425) cellular kit (manufactured by cisbio, 63ADK025), and a DeltaF value was calculated according to the calculation expression of the kit. Inhibition when 10 μM LY364947 (FUJIFILM Wako Pure Chemical Corp., 123-05981) was added instead of the test compound was defined as 100% inhibition, and inhibition when DMSO was added instead was defined as 0% inhibition. The rate of inhibition of phosphorylated SMAD3 by the test compound was calculated according to the following expression.
Rate of inhibition of phosphorylated SMAD3 (%)=[1−{(DeltaF value in the case of adding the test compound)−(DeltaF value in the case of adding 10 μM LY364947)}/{(DeltaF value in the case of adding DMSO)−(DeltaF value in the case of adding 10 μM LY364947)}]×100
An IC50 value was calculated from the rate of inhibition of phosphorylated SMAD3 by the test compound. A: IC50<10 nM, B: 10 nM≤IC50<50 nM, C: 50 nM≤IC50<100 nM, or D: IC50≥100 nM.

Row | Compound | IC50 (αvβ1) | IC50 [1]
1 | O=C(O)C[C@H](NC(=O)CNC(=O)c1cc(NC2=NCC(F)CN2)c2cn[nH]c2c1)c1cc(Br)cc(OC(F)(F)F)c1 (stereo partly drawn) [Example 32-(b), (3S)-3-(3-bromo-5-(trifluoromethoxy)phenyl)-3-(2-(4-((5-fluoro-1,4,5,6-tetrahydropyrimidin-2-yl)amino)-1H-indazole-6-carboxamido)acetamido)propanoic acid] | < 3 nM | < 10 nM
2 | O=C(O)C[C@H](NC(=O)CNC(=O)c1cc(NC2=NCC(F)CN2)c2cn[nH]c2c1)c1cc(OC(F)(F)F)ccc1F (stereo partly drawn) [Example 33-(b), (3S)-3-(2-(4-((5-fluoro-1,4,5,6-tetrahydropyrimidin-2-yl)amino)-1H-indazole-6-carboxamido)acetamido)-3-(2-fluoro-5-(trifluoromethoxy)phenyl)propanoic acid] | < 3 nM | < 10 nM
3 | O=C(O)C[C@H](NC(=O)CNC(=O)c1cc(NC2=NCC(F)CN2)c2cn[nH]c2c1)c1ccc(F)c(OC(F)(F)F)c1 (stereo partly drawn) [Example 34-(b), (3S)-3-(2-(4-((5-fluoro-1,4,5,6-tetrahydropyrimidin-2-yl)amino)-1H-indazole-6-carboxamido)acetamido)-3-(4-fluoro-3-(trifluoromethoxy)phenyl)propanoic acid] | < 3 nM | < 10 nM
4 | O=C(O)C[C@H](NC(=O)CNC(=O)c1cc(NC2=NCC(F)CN2)c2cn[nH]c2c1)c1cccc(C(F)(F)F)c1 (stereo partly drawn) [Example 35-(b), (3S)-3-(2-(4-((5-fluoro-1,4,5,6-tetrahydropyrimidin-2-yl)amino)-1H-indazole-6-carboxamido)acetamido)-3-(3-(trifluoromethyl)phenyl)propanoic acid] | 3 to 10 nM | 10 to 50 nM
5 | O=C(O)C[C@H](NC(=O)CNC(=O)c1cc(NC2=NCC(F)CN2)c2cn[nH]c2c1)c1cccc(OC(F)(F)F)c1 (stereo partly drawn) [Example 36-(b), (3S)-3-(2-(4-((5-fluoro-1,4,5,6-tetrahydropyrimidin-2-yl)amino)-1H-indazole-6-carboxamido)acetamido)-3-(3-(trifluoromethoxy)phenyl)propanoic acid] | 3 to 10 nM | 10 to 50 nM
6 | O=C(O)C[C@H](NC(=O)CNC(=O)c1cc(NC2=NCC(F)CN2)c2cn[nH]c2c1)c1cccc(OC(F)F)c1 (stereo partly drawn) [Example 37-(b), (3S)-3-(3-(difluoromethoxy)phenyl)-3-(2-(4-((5-fluoro-1,4,5,6-tetrahydropyrimidin-2-yl)amino)-1H-indazole-6-carboxamido)acetamido)propanoic acid] | 3 to 10 nM | < 10 nM
7 | O=C(O)C[C@H](NC(=O)CNC(=O)c1cc(NC2=NCC(F)CN2)c2cn[nH]c2c1)c1cccc(C(F)F)c1 (stereo partly drawn) [Example 38-(b), (3S)-3-(3-(difluoromethyl)phenyl)-3-(2-(4-((5-fluoro-1,4,5,6-tetrahydropyrimidin-2-yl)amino)-1H-indazole-6-carboxamido)acetamido)propanoic acid] | < 3 nM | 50 to 100 nM
8 | O=C(O)C[C@H](NC(=O)CNC(=O)c1cc(NC2=NCC(F)CN2)c2cn[nH]c2c1)c1cccc(C2CC2)c1 (stereo partly drawn) [Example 39-(b), (3S)-3-(3-cyclopropylphenyl)-3-(2-(4-((5-fluoro-1,4,5,6-tetrahydropyrimidin-2-yl)amino)-1H-indazole-6-carboxamido)acetamido)propanoic acid] | < 3 nM | < 10 nM
9 | O=C(O)C[C@H](NC(=O)CNC(=O)c1cc(NC2=NCC(F)CN2)c2cn[nH]c2c1)c1cccc(OC2CC2)c1 (stereo partly drawn) [Example 40-(b), (3S)-3-(3-cyclopropoxyphenyl)-3-(2-(4-((5-fluoro-1,4,5,6-tetrahydropyrimidin-2-yl)amino)-1H-indazole-6-carboxamido)acetamido)propanoic acid] | < 3 nM | 10 to 50 nM
10 | O=C(O)C[C@H](NC(=O)CNC(=O)c1cc(NC2=NCC(F)CN2)c2cn[nH]c2c1)c1cccc(Cl)c1 (stereo partly drawn) [Example 41-(b), (3S)-3-(3-chlorophenyl)-3-(2-(4-((5-fluoro-1,4,5,6-tetrahydropyrimidin-2-yl)amino)-1H-indazole-6-carboxamido)acetamido)propanoic acid] | 3 to 10 nM | < 10 nM
11 | O=C(O)C[C@H](NC(=O)CNC(=O)c1cc(NC2=NCC(F)CN2)c2cn[nH]c2c1)c1cccc(Br)c1 (stereo partly drawn) [Example 42-(b), (3S)-3-(3-bromophenyl)-3-(2-(4-((5-fluoro-1,4,5,6-tetrahydropyrimidin-2-yl)amino)-1H-indazole-6-carboxamido)acetamido)propanoic acid] | 3 to 10 nM | 10 to 50 nM
12 | O=C(O)C[C@H](NC(=O)CNC(=O)c1cc(NC2=NCC(F)CN2)c2cn[nH]c2c1)c1cccc(-n2cccn2)c1 (stereo partly drawn) [Example 43-(b), (3S)-3-(3-(1H-pyrazol-1-yl)phenyl)-3-(2-(4-((5-fluoro-1,4,5,6-tetrahydropyrimidin-2-yl)amino)-1H-indazole-6-carboxamido)acetamido)propanoic acid] | 3 to 10 nM | < 10 nM
13 | Cc1cc(C)n(-c2cccc([C@H](CC(=O)O)NC(=O)CNC(=O)c3cc(NC4=NCC(F)CN4)c4cn[nH]c4c3)c2)n1 (stereo partly drawn) [Example 44-(b), (3S)-3-(3-(3,5-dimethyl-1H-pyrazol-1-yl)phenyl)-3-(2-(4-((5-fluoro-1,4,5,6-tetrahydropyrimidin-2-yl)amino)-1H-indazole-6-carboxamido)acetamido)propanoic acid] | < 3 nM | < 10 nM
14 | O=C(O)C[C@H](NC(=O)CNC(=O)c1cc(NC2=NCC(F)CN2)c2cn[nH]c2c1)c1cccc(N2CCOCC2)c1 (stereo partly drawn) [Example 45-(b), (3S)-3-(2-(4-((5-fluoro-1,4,5,6-tetrahydropyrimidin-2-yl)amino)-1H-indazole-6-carboxamido)acetamido)-3-(3-morpholinophenyl)propanoic acid] | < 3 nM | 10 to 50 nM
15 | O=C(O)C[C@H](NC(=O)CNC(=O)c1cc(NC2=NCC(F)CN2)c2cn[nH]c2c1)c1ccc(OC(F)F)cc1 (stereo partly drawn) [Example 46-(b), (3S)-3-(4-(difluoromethoxy)phenyl)-3-(2-(4-((5-fluoro-1,4,5,6-tetrahydropyrimidin-2-yl)amino)-1H-indazole-6-carboxamido)acetamido)propanoic acid] | 3 to 10 nM | 50 to 100 nM
16 | O=C(O)C[C@H](NC(=O)CNC(=O)c1cc(NC2=NCC(F)CN2)c2cn[nH]c2c1)c1ccc(C(F)(F)F)cc1 (stereo partly drawn) [Example 47-(b), (3S)-3-(2-(4-((5-fluoro-1,4,5,6-tetrahydropyrimidin-2-yl)amino)-1H-indazole-6-carboxamido)acetamido)-3-(4-(trifluoromethyl)phenyl)propanoic acid] | 3 to 10 nM | 10 to 50 nM
